The text below walks through data of patent US8653057B1, “Prophylactic perioperative testosterone supplementation for protection of and recovery of function” (The Regents of the University of California, priority 2010, dated 2014).

The conditions of data set [1]: cited from earlier work.
The nature of data set [2]: testosterone supplementation of low-testosterone patients around radical prostatectomy (anecdotal results). It is filed as in vivo, men. The text has this:
Therefore men with either low or low normal testosterone levels can be treated with testosterone (or other androgens such as synthetic steroids structurally related to testosterone) to prevent, mitigate or treat erectile dysfunction associated with RARP/RP. A large number of testosterone replacement drugs such as Androgel can easily be given to appropriate patients prior to or even following surgery. The amount of testosterone administered is sufficient to raise the free testosterone level into the high free testosterone range as defined above (generally greater than about 9 ng/dl). Where other androgens are used, the equivalent effectiveness of each different molecule in terms of testosterone is generally known. Sufficient androgen is given so that the effectiveness of the circulating level of androgen plus testosterone falls within the high free testosterone range. As will be clear to those of ordinary skill in the art, the testosterone or other androgen is administered at the usual amount and frequency. Circulating testosterone levels are measured at appropriate intervals (i.e., weekly or monthly) and the dosage adjusted if necessary.
We believe that preoperative supplementation will produce even more dramatic improvements. […]

Take `C[C@]12CC[C@H]3[C@@H](CCC4=CC(=O)CC[C@@]43C)[C@@H]1CC[C@@H]2O` [testosterone]: the “PSA values after testosterone replacement therapy” value in data set [1] is on record as “have not been shown to increase significantly”. In data set [1] (testosterone replacement after radical prostatectomy, small studies (7, 10 and 57 men), 13 and 19 months), the “prostate specific antigen (PSA)” value was “without increasing prostate specific antigen (PSA)”. Moreover, in data set [2] (supplementing low testosterone levels, anecdotal results), the “recovery (of potency/sexual function) after prostate surgery” value was “more rapid and more complete recovery”. In addition, in data set [2] (testosterone supplementation, limited data), the “recurrence of the cancer” value is given as “does not lead to recurrence of the cancer”.
